One assay has as its system HER2. As to the kind of experiment: Western blotting of phosphorylated HER2 in BT-474 cells. The assay is classed as cell-based, human. The method, then: Human HER2-expressing human breast cancer cell line BT-474 (purchased from American Tissue Culture Collection (ATCC)) was seeded into a 24-multiwell plate (BT-474: 1.2 x 10^5 cells/well), and cultured overnight in a carbon dioxide gas incubator (5% CO2, 37°C). A 4-fold dilution series of a mitochondrial respiratory chain complex inhibiting compound (complex I: rotenone, complex III: antimycin, complex V: oligomycin: Wako Pure Chemical Industries) was added starting from a final concentration of 1 µmol/L in 5 steps while continuing culture. After 2 hours, the broth was removed, and the cells were lysed with an SDS sample buffer (200 µL). Western blotting analysis was performed as follows. Specifically, this cell lysate (8 µL) was separated by an SDS-PAGE method (gel concentration: 7.5-15%) (Analytical Biochemistry, No. 166, pp. 368-379, 1987), and transferred to a nitrocellulose membrane (BioRad). Then, an antibody specific to phosphorylated HER2 (Cell signaling technology, Code# 2244), an anti-phosphorylated Akt antibody specific to downstream antiapoptotic signal transducing molecule Akt (Cell signaling technology, Code# 9271) and an anti-phosphorylated MAPK antibody specific to downstream proliferation signal transducing molecule MAPK (Cell signaling technology, Code# 9101) were used to detect the antibody with an ECL system (Amersham) to quantify the amount of phosphorylated protein by an image analysis.
Human HER2-expressing human cancer cell line BT-474 (purchased from ATCC) was seeded into a 24-multiwell plate (1.2 x 10^5 cells/well) and cultured overnight in a carbon dioxide gas incubator (20% O2, 5% CO2, 37°C). A 3-fold dilution series of metformin that activates AMPK (The Journal of Biological Chemistry, Vol. 279, No. 42, pp. 43940-43951, 2004) was added starting from a final concentration of 15 mmol/L in 5 steps while continuing culture. Two hours later, the broth was removed and the cells were lysed with an SDS sample buffer (200 µL). This cell lysate (8 µL) was separated by an SDS-PAGE method (gel concentration: 7.5-15%) (Analytical Biochemistry, No. 166, pp. 368-379, 1987). Then, western blotting analysis was performed in the same manner as in Example 1 to quantify phosphorylated HER2, phosphorylated Akt and phosphorylated MAPK.
Human HER2-expressing human breast cancer cell line BT-474 (purchased from American Tissue Culture Collection (ATCC)) was seeded into a 24-multiwell plate (BT-474: 1.2 x 10^5 cells/well), and cultured overnight in a carbon dioxide gas incubator (5% CO2, 37°C). Mitochondrial respiratory chain complex 1-inhibiting compound rotenone (Wako Pure Chemical Industries) was added in 5 steps at final concentrations of 1, 0.333, 0.111, 0.033 and 0.011 µmol/L while continuing culture. Two hours later, the broth was removed and the cells were lysed with an SDS sample buffer (200 µL). Then, this cell lysate was used to perform western blotting analysis. Specifically, this cell lysate (8 µL) was separated by an SDS-PAGE method (gel concentration: 7.5-15%) (Analytical Biochemistry, No. 166, pp. 368-379, 1987) and transferred to a nitrocellulose membrane (BioRad). Then, an antibody specific to phosphorylated HER2 (Cell signaling technology, Code# 2244), an AMPK antibody specific to AMPK (Cell signaling technology, Code# 2535) and an anti-phosphorylated AMPK antibody specific to phosphorylated AMPK (Cell signaling technology, Code# 2532) were used to detect the antibody by chemiluminescent detection with an ECL system (Amersham) to quantify an amount of phosphorylated protein with LAS-1000 plus image analysis device (FUJIFILM).
Human HER2-expressing human breast cancer cell line BT-474 (purchased from American Tissue Culture Collection (ATCC)) was seeded into a 24-multiwell plate (BT-474: 1.2 x 10^5 cells/well) and cultured overnight in a carbon dioxide gas incubator (5% CO2, 37°C). […]

The subject of the next assay is A498 kidney cancer cell. The assay can be described thus: Viable cell count using Cell Counting Kit-F. The class given is cell-based. The following applies: A498; HER2-nonexpressing cancer; five days of culture. The procedure:
(§1) BT-474 breast cancer cell, MDA-MB-453 breast cancer cell, A549 non-small cell lung cancer cell and LNCaP prostate cancer cell were used as human HER2-expressing cells while MDA-MB-231 breast cancer cell and A498 kidney cancer cell (all purchased from ATCC) were used as HER2-nonexpressing cells. Each of the cells used had been seeded into a 96-plate at 500cells/150 µL/well and cultured overnight. Each of the compounds, i.e., antimycin (final concentrations: 1, 0.1, 0.01 and 0.001 µmol/L), 2,4-dinitrophenol (final concentrations: 0.6, 0.2, 0.06 and 0.02 mmol/L), metformin (final concentrations: 25, 5, 1 and 0.2 mmol/L) and AICAR (final concentrations: 25, 5, 1 and 0.2 mmol/L) was diluted with a medium and added for 50 µL/well at a time to the final concentrations mentioned above. Following five days of culture at 37°C in 5% CO2, the cells were counted using Cell Counting Kit-F (Dojindo Laboratories).
(§2) Viable cell count using Cell Counting Kit-F was carried out by the following method according to the attached instruction. The supernatant was removed from the 96-well plate after five days of culture. Cell Counting Kit-F diluted 1000-fold with an RPMI medium (phenol red-free, serum-free) was added for 100 µL/well at a time. After 30 minutes of reaction at room temperature, fluorescence (excitation wavelength; 480 nm, fluorescent wavelength; 530 nm) was determined with a fluorescent plate reader.
(§3) From the determination results, percentage of the fluorescence level in the wells added with the compound was determined assuming that the fluorescence level in the wells without the addition of the compound (control) is 100%, and the remaining cellular quantity was determined in % with respect to that of the control.
(§4) BT-474 breast cancer cell, MDA-MB-453 breast cancer cell and LNCaP prostate cancer cell were used as human HER2-expressing cells while MDA-MB-231 breast cancer cell and A498 kidney cancer cell (all purchased from ATCC) were used as HER2-nonexpressing cells. Each of the cells used had been seeded into a 96-well plate at 500 cells/150 µL/well and cultured overnight. Troglitazone (final concentrations: 25, 6.25 and 1.56 µmol/L) was diluted with a medium, and added for 50 µL/well at a time to the final concentrations mentioned above. Following five days of culture at 37°C in 5% CO2, the cells were counted using Cell Counting Kit-F (Dojindo Laboratories).
(§5) From the determination results, percentage of the fluorescence level in the wells added with troglitazone was determined assuming that the fluorescence level in the wells without the addition of troglitazone (control) is 100%, and the remaining cellular quantity was determined in % with respect to that of the control.

The test system of assay [1] is LNCaP prostate cancer cell. As to the kind of experiment: Viable cell count using Cell Counting Kit-F. The assay is classed as cell-based, human. Particulars: LNCaP; HER2-expressing cancer; five days of culture. The method, then:
as §1, §2, §3, §4, §5

Assay [2] has as its system MDA-MB-453 breast cancer cell. The assay can be described thus: Viable cell count using Cell Counting Kit-F. The class given is cell-based, human. Particulars: MB453; HER2-expressing cancer; five days of culture. The method, then: as §1, §2, §3, §4, §5
The test system of assay [3] is BT-474 breast cancer cell. As to the kind of experiment: Viable cell count using Cell Counting Kit-F. The assay is classed as cell-based, human. Particulars: BT474; HER2-expressing cancer; five days of culture. The procedure:
as §1, §2, §3, §4, §5

Setting [4] is: Example 7, two hours, antimycin 1-0.01 nmol/L, oligomycin 100-1 ng/mL, 2,4-dinitrophenol 300-3 µmol/L.

The record followed here is patent publication EP1902732A1, “PROPHYLACTIC/THERAPEUTIC AGENT FOR HER2-EXPRESSING CANCER” (Takeda Pharmaceutical Company Limited, priority 2005, dated 2006).

For `O=[N+]([O-])c1ccc(O)c([N+](=O)[O-])c1` [2,4-dinitrophenol], the HER2 phosphorylation entry in the assay on HER2 (setting [4]) was “decreased dose-dependently”. Moreover, the “minimum concentrations for inhibiting cell proliferation for 50% or more” value with A498 kidney cancer cell is 0.2 mmol/L; in assay [1] it was below 0.02 mmol/L; in assay [2], below 0.02 mmol/L; in assay [3], below 0.02 mmol/L.
Turning to antimycin, the HER2 phosphorylation result is “suppression of HER2 phosphorylation was confirmed” in the assay with HER2 (Example 2, 4-fold dilution series from 1 µmol/L in 5 steps, 2 hours) and “decreased dose-dependently” with HER2 (setting [4]). The “minimum concentrations for inhibiting cell proliferation for 50% or more” value in the assay with A498 kidney cancer cell is above 0.0001 mmol/L; in assay [1], 1e-06 mmol/L; in assay [2], 1e-06 mmol/L; in assay [3] it was 1e-06 mmol/L.
